The text below walks through data of patent publication US20040024293A1, “Methods and systems for analyzing complex biological systems” (priority 2001, published 2004).

Assay [1] has as its system Arabidopsis thaliana plants. Put plainly: Phenotypic analysis of herbicide-treated Arabidopsis plants (SOA1). In kind it is in vivo. The note with it: for leafCurling (Dev.) / leafTwisting (Dev.) / leafWidth (Dev.) / matureLeafAnthocyanins (Dev.) / matureLeafChlorosis (Dev.) / matureLeafNecrosis (Dev.) / newLeafAnthocyanins (Dev.) / newLeafChlorosis (Dev.) / newLeafNecrosis (Dev.) / pointedLeaves (Dev.) / tMic (Dev.): SOA1, numeric value standardized to mock treated; for Symptom Class: three-week-old Arabidopsis plants treated with herbicide, phenotypes of FIG. 12.

Assay [2] has as its system Arabidopsis thaliana. Put plainly: Biochemical (metabolite) profiling by LC-MS and GC-MS of sprayed Arabidopsis (MOA1). To be noted: MOA1, 20 min and 1 hr. In kind it is in vivo.
For assay [3], the system named is Arabidopsis plants. To be noted: nitrate addition to N-starved Arabidopsis plants; cited from earlier work.
For assay [4], the system named is Arabidopsis thaliana. Put plainly: Gene expression profiling (22,000 gene array) of sprayed Arabidopsis (MOA1). In kind it is in vivo. To be noted: for No. of Lethal Genes Altered / gene expression perturbations compared to the other treatments: 1 hr.

Molecules are shown by their SMILES.

Take `c1cc[n+]2c(c1)-c1cccc[n+]1CC2` [Diquat]: in assay [1], the “leafCurling (Dev.)” value is reported as 2, the “leafTwisting (Dev.)” value came to 0, the “leafWidth (Dev.)” value is recorded as −2 and the “matureLeafAnthocyanins (Dev.)” value was found to be 0. In assay [1], the “matureLeafChlorosis (Dev.)” value was 1, the “matureLeafNecrosis (Dev.)” value was 4, the “newLeafAnthocyanins (Dev.)” value was 0 and the “newLeafChlorosis (Dev.)” value came to 1. In addition, in assay [1], the “newLeafNecrosis (Dev.)” value came to 4, the “pointedLeaves (Dev.)” value came out at 1, the “tMic (Dev.)” value turned out to be 2 and the “Symptom Class” value was found to be 7.

In the case of `CC(C)C1(C)N=C(c2ncccc2C(=O)O)NC1=O` (stereo not shown) [Imazapyr], in assay [2], the stress-related metabolites observed result was “Only a few, if any”.

Regarding `O=C(O)COc1ccc(Cl)cc1Cl` [2,4-D], in assay [1], the “leafCurling (Dev.)” value turned out to be 1, the “leafTwisting (Dev.)” value amounted to 2, the “leafWidth (Dev.)” value is −1 and the “matureLeafAnthocyanins (Dev.)” value was determined as 1. In assay [1], the “matureLeafChlorosis (Dev.)” value was determined as 2, the “matureLeafNecrosis (Dev.)” value is recorded as 0, the “newLeafAnthocyanins (Dev.)” value is recorded as 0 and the “newLeafChlorosis (Dev.)” value is listed as 1. For the same compound, in assay [1], the “newLeafNecrosis (Dev.)” value was determined as 0, the “pointedLeaves (Dev.)” value was determined as 0, the “tMic (Dev.)” value amounted to 2 and the “Symptom Class” value amounted to 5.

For `O=[N+]([O-])O` [Nitrate], in assay [3], the “Nitrate Regulation of Glutamate synthetase gene” value was “↑”, the “Nitrate Regulation of Glutamine synthetase (2) genes” value is recorded as “↑”, the “Nitrate Regulation of MADs Box (2) genes” value is recorded as “↓” and the “Nitrate Regulation of MYB transcription factor gene” value is listed as “↑”. For the same compound, in assay [3], the “Nitrate Regulation of Malate Dehydrogenase gene” value is recorded as “↑”, the “Nitrate Regulation of Nitrate transporter gene” value is given as “↑”, the “Nitrate Regulation of Phosphate transporter gene” value is given as “↑” and the “Nitrate Regulation of Transaldolase gene” value is “↑”. Further, the “Nitrate Regulation of Transketolase gene” value in assay [3] is “↑”.

Turning to `COc1nc(C)nc(NC(=O)NS(=O)(=O)c2ccccc2Cl)n1` [Chlorsulfuron], in assay [4], the “No. of Lethal Genes Altered” value is 8.

Turning to `COC(=O)NS(=O)(=O)c1ccc(N)cc1` [Asulam], in assay [4], the “No. of Lethal Genes Altered” value worked out at 5 and the “gene expression perturbations compared to the other treatments” value is recorded as “fewest gene expression perturbations”.

Regarding `O=C(O)c1ccccc1C(=O)Nc1cccc2ccccc12` [Naptalam], in assay [4], the “No. of Lethal Genes Altered” value is 3 and the “gene expression perturbations compared to the other treatments” value is listed as “fewest gene expression perturbations”. Besides, in assay [4] (in vivo), the “Regulated Genes Following Herbicide Treatment: Down” value is reported as 47 and the “Regulated Genes Following Herbicide Treatment: Up” value is given as 50.

Take `CN(C)C(=O)Nc1ccc(Cl)c(Cl)c1` [Diuron]: in assay [1], the “leafCurling (Dev.)” value was determined as 1, the “leafTwisting (Dev.)” value is listed as 0, the “leafWidth (Dev.)” value is given as −2 and the “matureLeafAnthocyanins (Dev.)” value came out at 0. Moreover, in assay [1], the “matureLeafChlorosis (Dev.)” value is 2, the “matureLeafNecrosis (Dev.)” value is 4, the “newLeafAnthocyanins (Dev.)” value was determined as 0 and the “newLeafChlorosis (Dev.)” value worked out at 2. Moreover, in assay [1], the “newLeafNecrosis (Dev.)” value worked out at 4, the “pointedLeaves (Dev.)” value is 1, the “tMic (Dev.)” value worked out at 1 and the “Symptom Class” value stood at 7.

`CNc1cnn(-c2cccc(C(F)(F)F)c2)c(=O)c1Cl` [Norfluazon, Norflurazon]: in assay [2], the stress-related metabolites observed entry is reported as “Only a few, if any”.

As for `C[n+]1ccc(-c2cc[n+](C)cc2)cc1` [Paraquat], the “Symptom Class” value in assay [1] is reported as 7.
